According to BigSolDB 2.1:

Work on `CC1=C(O)C(=O)C(C)O1` (stereo not drawn) yielded a solubility (mole fraction) (in 1,4-dioxane, 278.15 K) of 0.192, a solubility (mole fraction) (in 1,4-dioxane, 283.15 K) of 0.22 and a solubility (mole fraction) (in 1,4-dioxane, 288.15 K) of 0.248. It also gave a solubility (mole fraction) (in 1,4-dioxane, 293.15 K) of 0.282, a solubility (mole fraction) (in 1,4-dioxane, 298.15 K) of 0.315 and a solubility (mole fraction) (in 1,4-dioxane, 303.15 K) of 0.357. The solubility (mole fraction) (in 1,4-dioxane, 308.15 K) was 0.4, the solubility (mole fraction) (in 1,4-dioxane, 313.15 K) was 0.445 and the solubility (mole fraction) (in DMF, 278.15 K) was 0.256. For the same compound, the solubility (mole fraction) (in DMF, 283.15 K) was 0.281, the solubility (mole fraction) (in DMF, 288.15 K) was 0.307 and the solubility (mole fraction) (in DMF, 293.15 K) was 0.336. For the same compound, the solubility (mole fraction) (in DMF, 298.15 K) was 0.368, the solubility (mole fraction) (in DMF, 303.15 K) was 0.402 and the solubility (mole fraction) (in DMF, 308.15 K) was 0.439. The solubility (mole fraction) (in DMF, 313.15 K) was 0.479, the solubility (mole fraction) (in acetone, 278.15 K) was 0.127 and the solubility (mole fraction) (in acetone, 283.15 K) was 0.151. The solubility (mole fraction) (in acetone, 288.15 K) was 0.177, the solubility (mole fraction) (in acetone, 293.15 K) was 0.209 and the solubility (mole fraction) (in acetone, 298.15 K) was 0.244. For the same compound, the solubility (mole fraction) (in acetone, 303.15 K) was 0.284, the solubility (mole fraction) (in acetone, 308.15 K) was 0.329 and the solubility (mole fraction) (in acetone, 313.15 K) was 0.381. For the same compound, the solubility (mole fraction) (in acetonitrile, 278.15 K) was 0.0733, the solubility (mole fraction) (in acetonitrile, 283.15 K) was 0.0896 and the solubility (mole fraction) (in acetonitrile, 288.15 K) was 0.11. It also gave a solubility (mole fraction) (in acetonitrile, 293.15 K) of 0.134, a solubility (mole fraction) (in acetonitrile, 298.15 K) of 0.164 and a solubility (mole fraction) (in acetonitrile, 303.15 K) of 0.202. It also gave a solubility (mole fraction) (in acetonitrile, 308.15 K) of 0.248, a solubility (mole fraction) (in acetonitrile, 313.15 K) of 0.303 and a solubility (mole fraction) (in chloroform, 278.15 K) of 0.256. The solubility (mole fraction) (in chloroform, 283.15 K) was 0.281, the solubility (mole fraction) (in chloroform, 288.15 K) was 0.307 and the solubility (mole fraction) (in chloroform, 293.15 K) was 0.336. The solubility (mole fraction) (in chloroform, 298.15 K) was 0.368, the solubility (mole fraction) (in chloroform, 303.15 K) was 0.402 and the solubility (mole fraction) (in chloroform, 308.15 K) was 0.439. The solubility (mole fraction) (in chloroform, 313.15 K) was 0.479, the solubility (mole fraction) (in cyclohexanone, 278.15 K) was 0.105 and the solubility (mole fraction) (in cyclohexanone, 283.15 K) was 0.128. It also gave a solubility (mole fraction) (in cyclohexanone, 288.15 K) of 0.155, a solubility (mole fraction) (in cyclohexanone, 293.15 K) of 0.187 and a solubility (mole fraction) (in cyclohexanone, 298.15 K) of 0.225. The solubility (mole fraction) (in cyclohexanone, 303.15 K) was 0.269, the solubility (mole fraction) (in cyclohexanone, 308.15 K) was 0.318 and the solubility (mole fraction) (in cyclohexanone, 313.15 K) was 0.372. The solubility (mole fraction) (in dichloromethane, 278.15 K) was 0.139, the solubility (mole fraction) (in dichloromethane, 283.15 K) was 0.16 and the solubility (mole fraction) (in dichloromethane, 288.15 K) was 0.189. It also gave a solubility (mole fraction) (in dichloromethane, 293.15 K) of 0.219, a solubility (mole fraction) (in dichloromethane, 298.15 K) of 0.254 and a solubility (mole fraction) (in dichloromethane, 303.15 K) of 0.292. It also gave a solubility (mole fraction) (in dichloromethane, 308.15 K) of 0.337, a solubility (mole fraction) (in dichloromethane, 313.15 K) of 0.386 and a solubility (mole fraction) (in isopropanol, 278.15 K) of 0.181. It also gave a solubility (mole fraction) (in isopropanol, 283.15 K) of 0.211, a solubility (mole fraction) (in isopropanol, 288.15 K) of 0.24 and a solubility (mole fraction) (in isopropanol, 293.15 K) of 0.272. It also gave a solubility (mole fraction) (in isopropanol, 298.15 K) of 0.309, a solubility (mole fraction) (in isopropanol, 303.15 K) of 0.348 and a solubility (mole fraction) (in isopropanol, 308.15 K) of 0.387. The solubility (mole fraction) (in isopropanol, 313.15 K) was 0.435, the solubility (mole fraction) (in methyl acetate, 278.15 K) was 0.139 and the solubility (mole fraction) (in methyl acetate, 283.15 K) was 0.16. For the same compound, the solubility (mole fraction) (in methyl acetate, 288.15 K) was 0.189, the solubility (mole fraction) (in methyl acetate, 293.15 K) was 0.219 and the solubility (mole fraction) (in methyl acetate, 298.15 K) was 0.254. The solubility (mole fraction) (in methyl acetate, 303.15 K) was 0.292, the solubility (mole fraction) (in methyl acetate, 308.15 K) was 0.337 and the solubility (mole fraction) (in methyl acetate, 313.15 K) was 0.386. It also gave a solubility (mole fraction) (in n-propyl acetate, 278.15 K) of 0.139, a solubility (mole fraction) (in n-propyl acetate, 283.15 K) of 0.16 and a solubility (mole fraction) (in n-propyl acetate, 288.15 K) of 0.189. The solubility (mole fraction) (in n-propyl acetate, 293.15 K) was 0.219, the solubility (mole fraction) (in n-propyl acetate, 298.15 K) was 0.254 and the solubility (mole fraction) (in n-propyl acetate, 303.15 K) was 0.292. It also gave a solubility (mole fraction) (in n-propyl acetate, 308.15 K) of 0.337, a solubility (mole fraction) (in n-propyl acetate, 313.15 K) of 0.386 and a solubility (mole fraction) (in sec-butanol, 278.15 K) of 0.105. It also gave a solubility (mole fraction) (in sec-butanol, 283.15 K) of 0.128, a solubility (mole fraction) (in sec-butanol, 288.15 K) of 0.155 and a solubility (mole fraction) (in sec-butanol, 293.15 K) of 0.187. The solubility (mole fraction) (in sec-butanol, 298.15 K) was 0.225, the solubility (mole fraction) (in sec-butanol, 303.15 K) was 0.269 and the solubility (mole fraction) (in sec-butanol, 308.15 K) was 0.318. For the same compound, the solubility (mole fraction) (in sec-butanol, 313.15 K) was 0.372.
